Laboratory results published in US12716904B2, “Compositions and methods for the detection of tuberculosis” (Washington University, priority 2021, dated 2026).

Columns and labels:
[1] = tested on: host and Mtb methylmalonyl-CoA mutase; conditions: host and Mtb enzyme; cited from earlier work
[2] = tested on: Mtb isocitrate lyase(s); conditions: Mtb enzyme, methylcitrate cycle; cited from earlier work
[3] = tested on: M. tuberculosis (H37Rv strain); experiment: Mtb growth in minimal media with a defined sole carbon source; conditions: 100 μg/mL
[4] = tested on: M. tuberculosis (H37Rv strain); experiment: Direct effect of cholestenone on Mtb growth in broth culture (absorbance, CFU); conditions: bacilli growing in broth culture
[5] = tested on: Helicobacter pylori; conditions: recent work; cited from earlier work

C=C(CC(=O)O)C(=O)O [itaconate, itaconic acid]
inhibition of methylmalonyl-CoA mutase [1]: inhibits
inhibition of isocitrate lyase(s) [2]: inhibits

CC(C)CCC[C@@H](C)[C@H]1CC[C@H]2[C@@H]3CC=C4C[C@@H](O)CC[C@]4(C)[C@H]3CC[C@]12C [cholesterol]
growth of Mtb with the substance as sole carbon source [3]: grew

CC(C)CCC[C@@H](C)[C@H]1CC[C@H]2[C@@H]3CCC4=CC(=O)CC[C@]4(C)[C@H]3CC[C@]12C [cholestenone, 4-cholesten-3-one]
direct antimicrobial activity (toxicity) against Mtb [4]: not directly toxic to Mtb
antimicrobial activity against Helicobacter pylori [5]: has antimicrobial activity

C[C@H](CCCC(C)(C)O)[C@H]1CC[C@H]2[C@@H]3CC=C4C[C@@H](O)CC[C@]4(C)[C@H]3CC[C@]12C [25-HC, 25-hydroxycholesterol]
growth of Mtb with the substance as sole carbon source [3]: grew
